Results published in PubChem BioAssay AID608 (Sanford-Burnham Center for Chemical Genomics, 2007).
pKd: −log10 of the molar value. Where “and” joins values, the source holds several entries; their conditions need not be identical. Identical values can stand only once. Calls of active or inactive are those of the source. No rule for the calls is given here.

target: Peptidyl-prolyl cis-trans isomerase FKBP1A (Homo sapiens) (UniProt P62942); experiment: FKBP12 binders, biophysical, NMR detection (AID 608); conditions: NMR binding, purified FKBP12
Sequence (P62942 whole entry, looked up): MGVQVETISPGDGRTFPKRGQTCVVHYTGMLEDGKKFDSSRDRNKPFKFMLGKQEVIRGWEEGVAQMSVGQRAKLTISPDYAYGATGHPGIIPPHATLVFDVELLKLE

Compound | Kd | pKd
Cc1ccc(-n2[nH]c(C)cc2=O)cc1 | > 4 mM (inactive) | –
O=C1CSC(=S)N1N1C(=O)C2C3C=CC(C3)C2C1=O (stereo not given) | > 4 mM (inactive) | –
c1ccc(-n2nnnc2Oc2cccc3cccnc23)cc1 | > 4 mM (inactive) | –
O=C(Nc1ccccc1)Nc1ccccn1 | > 4 mM (inactive) | –
Cn1nc(C(C)(C)C)cc1N | > 4 mM (inactive) | –
COCC(=O)/C=C1\Sc2ccccc2N1C | > 4 mM (inactive) | –
O=C(/C=C/c1ccccc1)NC1CCS(=O)(=O)C1 (stereo not given) | > 4 mM (inactive) | –
C=C1C(=O)O[C@@H]2C[C@@]3(C)CCC[C@H](C)C3=C[C@H]12 | > 4 mM (inactive) | –
NC(c1ccccc1)c1ccccn1 (stereo not given) | > 4 mM (inactive) | –
Nc1nnc(-c2ccncc2)s1 | > 4 mM (inactive) | –
O=S(=O)(Nc1ccc(Br)cc1)N1CCCCC1 | – | 3.17
Cc1nn(C)c(N2CCOCC2)c1N | > 4 mM (inactive) | –
CCOC(=O)c1cnn2ccccc12 | > 4 mM (inactive) | –
CC(=O)Nc1c(C)n(C)n(-c2ccccc2)c1=O | > 4 mM (inactive) | –
O=C(O)C1CSC2(CCCCC2)N1 (stereo not given) | > 4 mM (inactive) | –
Cc1cccc(-n2c(N)cc(=O)[nH]c2=S)c1 | > 4 mM (inactive) | –
CSc1cccc(NC(=O)c2c(Cl)cnn2C)c1 | > 4 mM (inactive) | –
O=S(=O)(NCc1ccco1)c1cccc2cccnc12 | > 4 mM (inactive) | –
COC(=O)c1cccs1 | > 4 mM (inactive) | –
O=C(Nc1ccccc1)c1cnc2n(c1=O)CCS2 | > 4 mM (inactive) | –

Compound | Kd | pKd
O=C1CCC(=O)N1c1ccc(F)cc1 | > 4 mM (inactive) | –
CC(=O)Nc1ccc2c(c1)n(C)c(=O)n2C | > 4 mM (inactive) | –
CCc1ccc(/C=N/n2cnnc2)cc1 | > 4 mM (inactive) | –
OC12C=CC(CC1)CC2 | > 4 mM (inactive) | –
C[C@H]1C(=O)O[C@@H]2CCN3CC=C(COC(=O)[C@](C)(O)[C@]1(C)O)[C@H]23 | > 4 mM (inactive) | –
C/C(=C\CO)CC[C@H](C)CCC[C@H](C)CCCC(C)C | > 4 mM (inactive) | –
O=C(O)c1ccccc1C(=O)Nc1ccccc1 | > 4 mM (inactive) | –
Cc1nn2c(-c3ccncc3)nnc2c2ccccc12 | > 4 mM (inactive) | –
c1cncc(C2CCCCN2)c1 (stereo not given) | > 4 mM (inactive) | –
Oc1ccccc1N1CCCC1 | > 4 mM (inactive) | –
CS(=O)(=O)c1ccc(N)cc1 | > 4 mM (inactive) | –
c1csc(-c2nnc3ccccn23)c1 | > 4 mM (inactive) | –
COc1cc(C(=S)N2CCOCC2)ccc1O | > 4 mM (inactive) | –
NC1=NC(=O)/C(=C\c2cccc(C(=O)O)c2)S1 | > 4 mM (inactive) | –
CC(=O)O[C@@H]1CC2C(C)(C)[C@H](O)C[C@H](O)[C@]2(C)C2CC[C@@]3(C)C(=CC(=O)O[C@H]3c3ccoc3)[C@@]21C (stereo not given in full) | > 4 mM (inactive) | –
COc1ccc2c(c1)C(NC(C)=O)C(=O)N2C (stereo not given) | > 4 mM (inactive) | –
O=C1C2C3C=CC(C3)C2C(=O)N1CCO (stereo not given) | > 4 mM (inactive) | –
NC(=O)CSc1nc2[nH]ncc2c(=O)[nH]1 | > 4 mM (inactive) | –
NC(=O)CN1CCCCCC1=O | > 4 mM (inactive) | –
O=C(O)c1ccc2ncccc2c1 | > 4 mM (inactive) | –

Compound | Kd | pKd
O=C(c1ccccc1F)N1CCN(c2ccccc2)CC1 | > 4 mM (inactive) | –
N=C1/C(=C\c2ccccc2)C(=O)N=C2SC=NN12 | > 4 mM (inactive) | –
NC(=O)c1ccsc1NC(=O)C1=COCCO1 | > 4 mM (inactive) | –
Nc1c(Nc2ccccc2)c2ccccc2oc1=O | > 4 mM (inactive) | –
COc1cc2c(cc1OC)-c1nnnn1C(C)(C)C2 | > 4 mM (inactive) | –
NN1C(=O)CSC1=Nc1ccccc1 | > 4 mM (inactive) | –
O=C(O)c1ccc(N2CCOCC2)nc1 | > 4 mM (inactive) | –
COC(=O)C[C@@H]1C2(C)C(=O)[C@@H](CC3=C4CC(O)O[C@@H](c5ccoc5)[C@]4(C)CCC32)[C@H](O)C1(C)C (stereo not given in full) | > 4 mM (inactive) | –
NCC1COc2ccccc2O1 (stereo not given) | > 4 mM (inactive) | –
O=C(NCc1ccccc1Br)c1ccco1 | > 4 mM (inactive) | –
C=CC(C)(O)CC/C=C(\C)CCC=C(C)C (stereo not given) | > 4 mM (inactive) | –
CC(C)(C)CC(=O)NNC(=O)c1cnccn1 | > 4 mM (inactive) | –
COC(=O)c1[nH]c2ccccc2c1C(=O)OC | > 4 mM (inactive) | –
OCc1ccc2c(c1)OCCCO2 | > 4 mM (inactive) | –
CC(=O)Nc1nnc(-c2ccncc2)s1 | > 4 mM (inactive) | –
COc1ccc(-c2c(C)n([O-])c(C)c(C)[n+]2=O)cc1 | > 4 mM (inactive) | –
CC(=O)O[C@@H]1CC[C@@]2(C)C(CC[C@]3(C)C2CC=C2C4CC(C)(C)CC[C@]4(C(=O)O)CC[C@]23C)C1(C)C (stereo not given in full) | > 4 mM (inactive) | –
O=S(=O)(N1CCCCC1)n1nnc2ccccc21 | > 4 mM (inactive) and 385 µM | –
Cc1ccc(-n2cnnn2)c2cccnc12 | > 4 mM (inactive) | –
O=c1cnnc(NCc2ccc(F)cc2)[nH]1 | > 4 mM (inactive) | –
